# Where two headings read alike, the source gives them in different places.
# Assays:
# [1] = target: T1, Nae I (Lentzea aerocolonigenes, UniProt P50187); assay: Activation of Nae I cleavage of M13mp18 RFI DNA; assay type: biochemical, Nocardia aerocolonigenes; parameters: key to Activation of Nae I cleavage of M13mp18 RF1 DNA: ++++: full activation; ++: about 50% activation; -: no activation
# T1 sequence (P50187 1-317): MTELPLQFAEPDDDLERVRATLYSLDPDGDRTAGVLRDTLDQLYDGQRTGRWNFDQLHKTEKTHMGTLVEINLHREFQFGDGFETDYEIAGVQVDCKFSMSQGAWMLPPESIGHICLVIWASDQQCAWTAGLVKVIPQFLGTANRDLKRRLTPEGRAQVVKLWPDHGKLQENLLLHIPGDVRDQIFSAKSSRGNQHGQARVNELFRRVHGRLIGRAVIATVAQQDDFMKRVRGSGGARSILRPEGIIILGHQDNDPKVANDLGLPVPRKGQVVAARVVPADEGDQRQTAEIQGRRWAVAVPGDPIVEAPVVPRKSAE
# [2] = target: T1, Nae I; conditions: 2 mM spermidine, SV40 DNA 2.9 nM, 1.1 units Nae I, 1 hour 37° C.
# [3] = target: T1, Nae I; assay: biochemical; conditions: 1 h, read-out: Increase in Nae I cleavage of SV40 slow site
compound,measurement,setting,value
NCCCCNCCCN [spermidine],Spermidine concentration needed to mimic the effect of 1 mM at low salt,[1]; 1 mM Mg2+ and 50 mM Na+,6 mM
same,Spermidine concentration at which the switch occurs (inhibition in presence of activating DNA),[1]; 50 mM NaCl and 10 mM MgCl2,8 mM
same,Spermidine concentration at which the switch occurs (inhibition in presence of activating DNA),[1]; low salt concentration,1 mM
same,Effect on cleavage of resistant Nae I sites such as in M13mp18 DNA,"[1]; spermidine at 1 mM, low salt",greatly activated
same,Spermidine concentration that switches on Nae I cleavage of resistant sites,"[1]; spermidine by itself, low salt conditions",about 1 mM
same,Nae I cleavage of SV40 slow site,[2],17%
same,fold induction at 2000 µM,[3],40
CTGGTGGTGGGCGCCGGC (chemistry not given here) [Oligonucleotide duplex 5],Activation of Nae I cleavage of M13mp18 RF1 DNA,[1],-
GCCGGC (chemistry not given here) [Oligonucleotide duplex 7],Activation of Nae I cleavage of M13mp18 RF1 DNA,[1]; compared to cleavage caused by an equal concentration of pBR322 Nae I sites,-
GCCGGCGGTGTGGGCAGCTGGTG (chemistry not given here) [Oligonucleotide duplex 6],Activation of Nae I cleavage of M13mp18 RF1 DNA,[1],-
GCGCCGGCGG (chemistry not given here) [Oligonucleotide duplex 4],Activation of Nae I cleavage of M13mp18 RF1 DNA,[1],-
GGGCGCCGGCGGTG (chemistry not given here) [Oligonucleotide duplex 3],Activation of Nae I cleavage of M13mp18 RF1 DNA,[1],++ (key: ++++: full activation; ++: about 50% activation; -: no activation)
GGGTGCCGGCAGGG (chemistry not given here) [SEQ ID NO: 8],Activation as activating sequence for Nae I,[1]; procedures of Example 1,100%
TGGTGGGCGCCGGCGGTGTGGGCA (TTGGTGGGCGCCGGCGGTGTGGGCA; chemistry not given here) [Oligonucleotide duplex 2],Activation of Nae I cleavage of M13mp18 RF1 DNA,[1],++++

# — US5418150A, “Method of cleaving DNA” (priority 1993, dated 1995)
